The text below walks through data of patent publication US12559496B2, “Imidazopyrimidines as modulators of IL-17” (Janssen Pharmaceutica NV, priority 2020, dated 2026).

Assay [1] deals with IL-17A(FLAG-Tagged): IL-17RA(His-Tagged) (Homo sapiens, UniProt Q16552, K93Q). The experiment in a line: IL-17A(FLAG-Tagged): IL-17RA(His-Tagged) Binding Disruption Eu-HTRF Assay. Particulars: disruption of IL-17A/IL-17RA binding; simple average if tested more than once. From the text: IL-17A(FLAG-Tagged): IL-17RA(His-Tagged) Binding Disruption Eu-HTRF Assay
Chain of UniProt Q16552 (Q16552 with tags, fused parts or gaps K93Q): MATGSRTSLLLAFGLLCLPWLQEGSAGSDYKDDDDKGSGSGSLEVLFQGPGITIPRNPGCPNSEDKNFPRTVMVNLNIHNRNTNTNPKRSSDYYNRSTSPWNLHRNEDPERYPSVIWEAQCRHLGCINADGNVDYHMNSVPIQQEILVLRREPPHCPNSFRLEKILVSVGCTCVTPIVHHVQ
An antibody directed against the FLAG tag of IL-17A (SEQ ID NO: 1) is labeled with the HTRF donor chromophore (Europium-cryptate). IL-17A is present as a dimer that is “locked into” this quaternary structure due to the formation of loop-spanning […] disulfide bridges. The construct of IL-17RA used in the assay excludes the […] portion of the receptor and is fused to a C-terminal 10×His tag (SEQ ID NO:2). An antibody directed against the His tag of the IL-17RA chimera is labeled with the HTRF acceptor chromophore (“D2”). The fluorescence-resonance energy transfer (FRET) depends on the vicinity of the donor chromophore to the acceptor, and interruption of the binding between the IL-17A and IL-17RA causes the reduction/loss of FRET. Therefore, this assay allows to evaluate the compound effect on the binding IL-17A and IL-17RA by monitoring the fluorescence intensity of donor vs acceptor. The assay is run as described below.
40 nL of 2-fold serial diluted compound solution for total 22 dilution points is added into each well of a 1536-well, white, low-volume, non-binding plate (Greiner #782904), then 2 μL of FLAG tagged IL-17A at 2× final concentration (2.5 nM) in solution of PBS+0.01% Triton-X100 is added to each well. The assay plate is briefly centrifuged then incubated for 1 h at rt. A mixed solution is prepared containing 2×5 nM 10HIS×IL-17RA, 2×2.5 nM Eu-anti-FLAG (CISBIO), 2×5 nM D2-anti-HIS (CISBIO) in PBS+0.01% Triton-X100+200 mM Potassium Fluoride (Sigma 60238) and 2 μL of mix is added to each well of the assay plate. The plate is briefly centrifuged then incubated for 2 h at rt. The HTRF intensities at the wavelength of donor (620 nm) and acceptor (665 nm) are measured using BMG Pherastar. The ratio between intensities at two wavelengths is calculated and plotted against the compound concentration and the data is fitted to a one-site competition model to yield IC50 of the compound.
In general terms: In TR-FRET formats the signal depends on donor and acceptor labels being close together.

Assay [2] deals with IL-17A-induced G-CSF production in human normal keratinocytes (NHK). The experiment in a line: NHK Assay: IL-17A-induced G-CSF production in human normal keratinocytes. In kind it is cell-based. Particulars: IL-17A 5 ng/mL, 24 h, 5% FBS, simple average if tested more than once. Here is the method: IL-17A acts directly on keratinocytes through binding to dimeric receptor IL-17RA/RC and drives the production of a number of inflammatory mediators known to be elevated in psoriasis lesional tissue. IL-17A small molecule inhibitors that block the IL-17A to interact with IL-17R would inhibit the IL-17A signaling in its targeted cells such as keratinocytes. The compound functional activity is evaluated for its impact on IL-17A-induced G-CSF production in human normal keratinocytes (NHK).
Adult normal human keratinocytes are cultured in keratinocyte growth medium (Lonza) in a flask till reaching ˜ 90% confluence, then cells are transferred to a 384-well plate at density of 3000-4000 cell/well. Recombinant human IL-17A (Gibco PHC9174) is pre-incubated with titrated compound or DMSO for 1 h at rt then added to the cell culture plate. The final concentration of IL-17A is 5 ng/mL and DMSO is 0.2%, in the culture containing 5% FBS. Cells are cultured/treated for 24 h at 37° C. Supernatants are collected and G-CSF production is measured through HTRF technology using Human G-CSF Kit (CisBio). G-CSF concentration was extrapolated from the standard curve and IC50 is determined using GraphPad Prism. Cell viability is also evaluated using CellTiter-Glo kit (Promega) and effect of compound on cell viability is compared to DMSO control.

pIC50: −log10 of the molar value.

Turning to `Cc1nonc1C(=O)N[C@H](c1cn2ccc([C@H](NC(=O)CC3CC3(F)F)C3CC3)nc2n1)C1CCC(F)(F)CC1` (single isomer, unassigned) [Example 52, N—((S)-(7-((R)-Cyclopropyl(2-((R*)-2,2-difluorocyclopropyl)acetamido)methyl)imidazo[1,2-a]pyrimidin-2-yl)(4,4-difluorocyclohexyl)methyl)-4-methyl-1,2,5-oxadiazole-3-carboxamide], the pIC50 in assay [1] was 6.17; in assay [2] it was 5.55.

Regarding `Cc1conc1C(=O)N[C@H](c1cn2ccc([C@H](NC(=O)CC3CC3(F)F)C3CC3)nc2n1)C1CCC(F)(F)CC1` (single isomer, unassigned) [Example 53, N—((S)-(7-((R)-Cyclopropyl(2-((S*)-2,2-difluorocyclopropyl)acetamido)methyl)imidazo[1,2-a]pyrimidin-2-yl)(4,4-difluorocyclohexyl)methyl)-4-methylisoxazole-3-carboxamide], the pIC50 is 6.31 in assay [1] and 5.64 in assay [2] (Homo sapiens, Keratinocyte).

Consider `Cc1conc1C(=O)N[C@H](c1cn2ccc([C@H](NC(=O)CC3CC3(F)F)C3CC3)nc2n1)C1CCC(F)(F)CC1` (single isomer, unassigned) [Example 54, N—((S)-(7-((R)-Cyclopropyl(2-((R*)-2,2-difluorocyclopropyl)acetamido)methyl)imidazo[1,2-a]pyrimidin-2-yl)(4,4-difluorocyclohexyl)methyl)-4-methylisoxazole-3-carboxamide], for which the negative-log IC50 (pIC50) was 6.34 in assay [1] and 5.35 in assay [2].

Consider `O=C(CC1CC1(F)F)N[C@@H](c1ccn2cc([C@@H](NC(=O)c3ncnn3CC3CC3)C3CCC(F)(F)CC3)nc2n1)C1CC1` (single isomer, unassigned) [Example 55, N—((S)-(7-((R)-Cyclopropyl(2-((S*)-2,2-difluorocyclopropyl)acetamido)methyl)imidazo[1,2-a]pyrimidin-2-yl)(4,4-difluorocyclohexyl)methyl)-1-(cyclopropylmethyl)-1H-1,2,4-triazole-5-carboxamide], for which the pIC50 was 6.24 in assay [1] and 5.96 in assay [2] (Homo sapiens, Keratinocyte).

As for `O=C(CC1CC1(F)F)N[C@@H](c1ccn2cc([C@@H](NC(=O)c3ncnn3CC3CC3)C3CCC(F)(F)CC3)nc2n1)C1CC1` (single isomer, unassigned) [Example 56, N—((S)-(7-((R)-Cyclopropyl(2-((R*)-2,2-difluorocyclopropyl)acetamido)methyl)imidazo[1,2-a]pyrimidin-2-yl)(4,4-difluorocyclohexyl)methyl)-1-(cyclopropylmethyl)-1H-1,2,4-triazole-5-carboxamide], the pIC50 was 6.14 in assay [1] and 5.74 in assay [2].

As to `O=C(CC1CC1(F)F)N[C@@H](c1ccn2cc([C@@H](NC(=O)c3conc3C(F)(F)F)C3CCC(F)(F)CC3)nc2n1)C1CC1` (single isomer, unassigned) [Example 57, N—((S)-(7-((R)-Cyclopropyl(2-((S*)-2,2-difluorocyclopropyl)acetamido)methyl)imidazo[1,2-a]pyrimidin-2-yl)(4,4-difluorocyclohexyl)methyl)-3-(trifluoromethyl)isoxazole-4-carboxamide], the pIC50 in assay [1] was 6.66; in assay [2] it was 6.03.

Regarding `O=C(CC1CC1(F)F)N[C@@H](c1ccn2cc([C@@H](NC(=O)c3conc3C(F)(F)F)C3CCC(F)(F)CC3)nc2n1)C1CC1` (single isomer, unassigned) [Example 58, N—((S)-(7-((R)-Cyclopropyl(2-((R*)-2,2-difluorocyclopropyl)acetamido)methyl)imidazo[1,2-a]pyrimidin-2-yl)(4,4-difluorocyclohexyl)methyl)-3-(trifluoromethyl)isoxazole-4-carboxamide], the negative-log IC50 (pIC50) in assay [1] is 6.47; in assay [2], 5.66.

Regarding `O=C(CCC(F)(F)F)NC(c1ccn2cc([C@@H](NC(=O)c3cnn(CCC(F)(F)F)c3)C3CCC(F)(F)CC3)nc2n1)C1CC1` (stereo in doubt) [Example 50, N—((S)-(7-((R*)-Cyclopropyl(4,4,4-trifluorobutanamido)methyl)imidazo[1,2-a]pyrimidin-2-yl)(4,4-difluorocyclohexyl)methyl)-1-(3,3,3-trifluoropropyl)-1H-pyrazole-4-carboxamide], the pIC50 was 5.17 in assay [1] and below 4.70 in assay [2] (Homo sapiens, Keratinocyte).

Consider `CC(C)n1ncnc1C(=O)N[C@H](c1cn2ccc([C@H](NC(=O)CC3CC(F)(F)C3)C3CC3)nc2n1)C1CCC(F)(F)CC1` [Example 13, N—((S)-(7-((R)-Cyclopropyl(2-(3,3-difluorocyclobutyl)acetamido)methyl)imidazo[1,2-a]pyrimidin-2-yl)(4,4-difluorocyclohexyl)methyl)-1-isopropyl-1H-1,2,4-triazole-5-carboxamide], for which the pIC50 in assay [1] is 6.47; in assay [2] (Homo sapiens, Keratinocyte), 6.30.

Turning to `CC(C)n1ncnc1C(=O)N[C@H](c1cn2ccc([C@@H](NC(=O)CC3CC(F)(F)C3)C3CC3)nc2n1)C1CCC(F)(F)CC1` [Example 14, N—((S)-(7-((S)-Cyclopropyl(2-(3,3-difluorocyclobutyl)acetamido)methyl)imidazo[1,2-a]pyrimidin-2-yl)(4,4-difluorocyclohexyl)methyl)-1-isopropyl-1H-1,2,4-triazole-5-carboxamide], the pIC50 is 4.77 in assay [1] and below 4.70 in assay [2] (Homo sapiens, Keratinocyte).

Consider `O=C(CC1CC(F)(F)C1)N[C@@H](c1ccn2cc([C@@H](NC(=O)c3ncnn3CC3CC3)C3CCC(F)(F)CC3)nc2n1)C1CC1` [Example 15, N—((S)-(7-((R)-Cyclopropyl(2-(3,3-difluorocyclobutyl)acetamido)methyl)imidazo[1,2-a]pyrimidin-2-yl)(4,4-difluorocyclohexyl)methyl)-1-(cyclopropylmethyl)-1H-1,2,4-triazole-5-carboxamide], for which the pIC50 in assay [1] is 6.54; in assay [2] (Homo sapiens, Keratinocyte), 5.85.

As for `O=C(CC1CC(F)(F)C1)N[C@H](c1ccn2cc([C@@H](NC(=O)c3ncnn3CC3CC3)C3CCC(F)(F)CC3)nc2n1)C1CC1` [Example 16, N—((S)-(7-((S)-Cyclopropyl(2-(3,3-difluorocyclobutyl)acetamido)methyl)imidazo[1,2-a]pyrimidin-2-yl)(4,4-difluorocyclohexyl)methyl)-1-(cyclopropylmethyl)-1H-1,2,4-triazole-5-carboxamide], the pIC50 in assay [1] was 4.92; in assay [2] (Homo sapiens, Keratinocyte), below 4.70.

Turning to `Cc1nonc1C(=O)N[C@H](c1cn2ccc([C@H](NC(=O)CC3CC(F)(F)C3)C3CC3)nc2n1)C1CCC(F)(F)CC1` [Example 21, N—((S)-(7-((R)-Cyclopropyl(2-(3,3-difluorocyclobutyl)acetamido)methyl)imidazo[1,2-a]pyrimidin-2-yl)(4,4-difluorocyclohexyl)methyl)-4-methyl-1,2,5-oxadiazole-3-carboxamide], the pIC50 in assay [1] was 7.00; in assay [2] (Homo sapiens, Keratinocyte), 6.23.

As to `Cc1nonc1C(=O)N[C@H](c1cn2ccc([C@@H](NC(=O)CC3CC(F)(F)C3)C3CC3)nc2n1)C1CCC(F)(F)CC1` [Example 22, N—((S)-(7-((S)-Cyclopropyl(2-(3,3-difluorocyclobutyl)acetamido)methyl)imidazo[1,2-a]pyrimidin-2-yl)(4,4-difluorocyclohexyl)methyl)-4-methyl-1,2,5-oxadiazole-3-carboxamide], the pIC50 in assay [1] is 5.21; in assay [2] (Homo sapiens, Keratinocyte), below 4.70.

The pIC50 is the negative decadic logarithm of the IC50, by convention in mol/L. A high value points to a small IC50.
